“Also recorded” adds a separate entry of the source.
Assays:
[1] = tested on: Ptch1-deficient GNPs; test: Induction of Nestin expression in Ptch1-deficient GNPs (immunocytochemistry); type: cell-based, mouse; details: 20 ng/ml leukotriene, 48 hrs after Cre lentivirus infection
Procedure: (§1) GNPs isolated from Ptch1^C/C animals were plated and infected with lentivirus carrying Cre recombinase to delete Ptch1. At 48 hrs following the infection, GNPs were stained for Cre (green) and Nestin (red) in control (Panel A) and in the presence of 20 ng/ml leukotriene (Panel B). MB cells were plated in vitro for 48 hrs, and stained for Nestin (red) in control (Panel C) and in the presence of 5 μM MK886. (Panel D).
Since Nestin is a cytoskeleton protein, it was examined whether leukotriene could induce Nestin expression in medulloblastoma cells. For this purpose, cerebellar GNPs were isolated from Ptch1^C/C animals, and Patched1 (Ptch1) was deleted from GNPs by using a lentivirus with Cre recombinase. At 48 hrs following the infection, cells were harvested to analyze Nestin expression by immunocytochemistry. […] The presence of Nestin mRNA and protein has been confirmed by RT-PCR and western blotting (data not shown).

[2] = tested on: GBM cell lines T98G, U-87MG and U251; test: GBM cell viability by Alamar blue assay; type: cell-based; details: various concentrations, 48 hrs (FIG. 8)
Procedure: Three GBM cell lines (T98G, U87-MG and U251) were plated and treated with MK886 and Montelukast at various concentrations for 48 hrs. Cell viability was measured by Alamar blue assay. Data represent the average of triplicate+SD. *p<0.05
To test the efficacy of leukotriene inhibitors in preventing glioblastoma cell proliferation, three GBM cell lines: T98G, U-87MG and U251 (purchased from an in-house cell culture facility) were utilized. The cell lines were treated with MK886 and Montelukast at different concentrations. After treatment for 48 hrs, cell survival and growth was analyzed by Alamar blue assay (Al-Nasiry, S et al. (2007) Hum. Reprod. 22:1304-9).

[3] = tested on: tumor cells isolated from Math1-Cre/Ptch1^C/C animals (MB cells); test: Tumor cell proliferation in vitro by Ki67 immunostaining; type: cell-based, mouse; details: 48 hrs treatment, 3 μM, vs DMSO (FIG. 5)
Procedure: 48 hrs later, the percentage of proliferating cells was calculated after immunostaining the culture with antibody against Ki67.
Tumor cells isolated from the mouse model were treated with MK886 or DMSO as a control. At 48 hrs after treatment, tumor cells were analyzed for proliferation by immunostaining for Ki67.
DMSO was used as a negative control.

[4] = tested on: medulloblastoma in Math1-Cre/Ptch1^C/C animals; test: In vivo tumor growth in tumor bearing Math1-Cre/Ptch1^C/C animals; parameters: species or system mouse
Procedure: Tumor bearing animals were treated with MK886 or DMSO by IP injection. After 1 month treatment, tumors were harvested. Tumor size was reduced by 30% with the treatment of MK886 (Panel A). After the treatment, tumors were sectioned for immunostaining for Nestin (Panels B and D), and Ki67 (Panels C and E). In the control (Panels B and C), tumor cells extensively express Nestin (Panel B) and all the tumor cells were Ki67 positive (Panel C).
Next, the efficacy of MK886 in inhibiting in vivo tumor growth was evaluated. Math1-Cre/Ptch1^C/C animals at postnatal day 21 were treated daily with 30 μg MK886 by intraperitoneal injection. Three weeks later, tumor volume was evaluated by MRI imaging.
Nestin expression and Ki67 was compared in tumor sections by immunohistochemical analysis.

[5] = tested on: tumor cells isolated from Math1-Cre/Ptch1^C/C animals (MB cells); test: Nestin expression in cultured medulloblastoma tumor cells (immunostaining); type: cell-based, mouse
Procedure: as §1
Tumor cells isolated from Math1-Cre/Ptch1^C/C animals, were treated with 3 μM DMSO (Panels A and B) or MK886 (Panels C and D) in vitro. After 48 hrs treatment, tumor cells were harvested for immunostaining with antibodies against Nestin (red) and Ki67 (green) (Panels B and D). The same cultures were counterstained by DAPI (blue) to show the total cell number (Panels A and B).
To further examine whether Leukotriene synthesis is required for Nestin expression in tumor cells, tumor cells were isolated from the mouse model, which has already highly expresses Nestin in vivo, even in the culture at 48 hrs following plating.
It was next investigated whether leukotriene inhibition can prevent tumor cell proliferation. […] At 48 hrs after treatment, tumor cells were analyzed for proliferation by immunostaining for Ki67. […]

In the case of leukotriene, the “Nestin protein among Ptch1-deficient GNPs” value [1] is reported as “high level of Nestin protein was detected”.
With CC(C)(O)c1ccccc1CC[C@@H](SCC1(CC(=O)O)CC1)c1cccc(/C=C/c2ccc3ccc(Cl)cc3n2)c1 [Montelukast, (R,E)-2-(1-((1-(3-(2-(7-chloroquinolin-2-yl)vinyl)phenyl)-3-(2-(2-hydroxypropan-2-yl)phenyl)propylthio)methyl)cyclopropyl)acetic acid] the “viability of GBM cells” value [2] was “effectively reduce the viability”.
For CC(C)c1ccc2c(c1)c(SC(C)(C)C)c(CC(C)(C)C(=O)[O-])n2Cc1ccc(Cl)cc1.[Na+] [MK886, 1-[(4-Chlorophenyl)methyl]-3-[(1,1-dimethylethyl)thio]-α,α-dimethyl-5-(1-methylethyl)-1H-Indole-2-propanoic acid], the “viability of GBM cells” value [2] was “effectively reduce the viability”, the “proliferation among tumor cells (Ki67)” value [3] was “prevented the proliferation” and the “decrease of tumor size in volume (MRI imaging)” value ([4]; 30 μg MK886 daily intraperitoneal from postnatal day 21, three weeks, vs DMSO) was “over 30%”. For the same molecule, the tumor size reduction ([4]; IP injection, after 1 month treatment, tumors harvested (FIG. 7 Panel A)) was 30%, the “Nestin expression in tumor sections after treatment” value ([4]; immunostaining of tumor sections after MK886 treatment vs DMSO) was “dramatically reduced; also recorded: almost no Nestin is present” and the “number of Ki67 positive cells in tumor” value ([4]; tumor sections after MK886 treatment compared with control) was “decreased dramatically”. The “tumor cells still positive for Ki67” value ([4]; tumor sections after MK886 treatment, control all cells Ki67 positive (FIG. 7 Panel E)) was “around 30%”, the “Nestin expression in tumor cells” value ([5]; 48 hrs treatment, 3 μM, vs DMSO (FIG. 5)) was “markedly inhibited” and the “Nestin expression among tumor cells” value ([5]; MB cells plated in vitro 48 hrs, 5 μM MK886 (FIG. 4)) was “dramatically inhibited”.

Source: US9616056B2, “Inhibition of leukotriene synthesis and activity in the treatment of sonic hedgehog-associated medulloblastoma” (Institute for Cancer Research, priority 2013, dated 2017)
